Reference: ChEMBL document CHEMBL5252587, “Structure-activity relationship study of antitrypanosomal analogues of gibbilimbol B using multivariate analysis and computation-aided drug design” (Bioorg Med Chem Lett, 2023)

Experiments:
Trypanosoma cruzi = assay: Antitrypanosomal activity against Trypanosoma cruzi trypomastigotes assessed as parasite growth inhibition; assay type: functional, organism-based
Fibroblast = assay: Cytotoxicity against mouse NCTC Fibroblast cells assessed as inhibition of cell growth; assay type: functional
[1] = Selectivity index, ratio of CC50 for cytotoxicity against mouse NCTC Fibroblast cells assessed as inhibition of cell growth to EC50 for antitrypanosomal activity against Trypanosoma cruzi trypomastigotes assessed as parasite growth inhibition; assay type: toxicity, cell-based; settings: read-out: Ratio CC50/EC50
[2] = Trypanosoma cruzi, read-out: EC50

| SMILES | EC50 (Trypanosoma cruzi; [2]) | CC50 (Fibroblast) | selectivity ratio [1] | EC50 (Trypanosoma cruzi) |
| --- | --- | --- | --- | --- |
| CCCCC(CC)COC(=O)c1ccc([N+](=O)[O-])cc1 (centres undefined) | 11.5 µM | > 200 µM | > 17.4 | – |
| CCC/C=C/CCCNC(=O)c1ccc(C(C)(C)C)cc1 | 7.7 µM | > 200 µM | > 26 | – |
| CCC/C=C/CCCNC(=O)c1ccccc1 | 71.3 µM | > 200 µM | > 2.8 | – |
| CCC/C=C/CCCOC(=O)c1ccc(C)cc1 | 11.7 µM | > 200 µM | > 17.1 | – |
| CCCCC(CC)COC(=O)c1ccc(C(C)(C)C)cc1 (centres undefined) | – | > 200 µM | – | Not Active |
| CCCCC(CC)COC(=O)c1ccc(Cl)cc1 (centres undefined) | 15.6 µM | > 200 µM | > 12.8 | – |
| CCCCC(CC)CNC(=O)c1ccc(C(C)(C)C)cc1 (centres undefined) | – | > 200 µM | – | Not Active |
| CCC/C=C/CCCOC(=O)c1ccc([N+](=O)[O-])cc1 | 5.6 µM | > 200 µM | > 35.1 | – |
| CCCCC(CC)CNC(=O)c1ccc([N+](=O)[O-])cc1 (centres undefined) | 22 µM | > 200 µM | > 9.1 | – |
| CCC/C=C/CCCOC(=O)c1ccc(F)cc1 | 20.8 µM | > 200 µM | > 9.6 | – |
| CCCCC(CC)COC(=O)c1ccc(C)cc1 (centres undefined) | 19.7 µM | > 200 µM | > 10.2 | – |
| CCC/C=C/CCCNC(=O)c1ccc(F)cc1 | 71.4 µM | > 200 µM | > 2.8 | – |
| CCC/C=C/CCCOC(=O)c1ccc(OC)cc1 | 15.6 µM | > 200 µM | > 12.8 | – |
| CCC/C=C/CCCNC(=O)c1ccc(OC)cc1 | 25.9 µM | > 200 µM | > 7.7 | – |
| CCCCC(CC)CNC(=O)c1ccc(F)cc1 (centres undefined) | 36.6 µM | 157 µM | 4.3 | – |
| CCC/C=C/CCCOC(=O)c1ccccc1 | 77.4 µM | > 200 µM | > 2.6 | – |
| CCC/C=C/CCCNC(=O)c1ccc(C)cc1 | 37.7 µM | > 200 µM | > 5.3 | – |
| CCC/C=C/CCCNC(=O)c1ccc(Cl)cc1 | 28.7 µM | > 200 µM | > 7 | – |
| CCCCC(CC)COC(=O)c1ccc(F)cc1 (centres undefined) | 42.4 µM | > 200 µM | > 4.7 | – |
| CCCCC/C=C/CCCOC(=O)c1ccc(O)cc1 | 75.3 µM | > 200 µM | > 2.7 | – |
| CCCCC(CC)CNC(=O)c1ccc(Cl)cc1 (centres undefined) | 20.7 µM | > 200 µM | > 9.7 | – |
| CCC/C=C/CCCOC(=O)c1ccc(C(C)(C)C)cc1 | – | > 200 µM | – | Not Active |
| CCC/C=C/CCCNC(=O)c1ccc([N+](=O)[O-])cc1 | 24.4 µM | 158 µM | 6.5 | – |
| CCC/C=C/CCCOC(=O)c1ccc(Cl)cc1 | 19.8 µM | > 200 µM | > 10.1 | – |
| CCCCC(CC)CNC(=O)c1ccc(C)cc1 (centres undefined) | 21.3 µM | > 200 µM | > 9.4 | – |
| O=C(Cn1ccnc1[N+](=O)[O-])NCc1ccccc1 [BENZNIDAZOLE] | – | > 200 µM | > 16 | – |
